Experimental data: patent US9796711B2, “Substituted pyrazolo[3,4-b]pyridin-6-carboxylic acids and method of use” (AbbVie S.àr.l., priority 2015, dated 2017)

Molecular target: T1, ΔF508-CFTR (Homo sapiens, UniProt P13569, DEL508-508)
T1 construct: host or cells: CFBE41o-, doxycycline-inducible
Assay: CFTR cell surface levels using HRP-tagged ΔF508-CFTR expressing CFBE cells, in the presence of a co-corrector
Assay type: cell-based
Conditions: HRP-tagged ΔF508-CFTR expressing CFBE cells, in the presence of 3 μM co-corrector; for EC50: read-out: EC50
Summary of the method: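 Cells were seeded with 0.5 μg/mL doxycycline and held 68 h at 37 °C. Test compounds plus 3 μM co-corrector (final 0.1% DMSO) were then added for 20 h at 33 °C. Washed cells received HRP substrate, and luminescence was normalized between DMSO and 3 μM co-corrector controls.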

T1 sequence (P13569 with tags, fused parts or gaps DEL508-508): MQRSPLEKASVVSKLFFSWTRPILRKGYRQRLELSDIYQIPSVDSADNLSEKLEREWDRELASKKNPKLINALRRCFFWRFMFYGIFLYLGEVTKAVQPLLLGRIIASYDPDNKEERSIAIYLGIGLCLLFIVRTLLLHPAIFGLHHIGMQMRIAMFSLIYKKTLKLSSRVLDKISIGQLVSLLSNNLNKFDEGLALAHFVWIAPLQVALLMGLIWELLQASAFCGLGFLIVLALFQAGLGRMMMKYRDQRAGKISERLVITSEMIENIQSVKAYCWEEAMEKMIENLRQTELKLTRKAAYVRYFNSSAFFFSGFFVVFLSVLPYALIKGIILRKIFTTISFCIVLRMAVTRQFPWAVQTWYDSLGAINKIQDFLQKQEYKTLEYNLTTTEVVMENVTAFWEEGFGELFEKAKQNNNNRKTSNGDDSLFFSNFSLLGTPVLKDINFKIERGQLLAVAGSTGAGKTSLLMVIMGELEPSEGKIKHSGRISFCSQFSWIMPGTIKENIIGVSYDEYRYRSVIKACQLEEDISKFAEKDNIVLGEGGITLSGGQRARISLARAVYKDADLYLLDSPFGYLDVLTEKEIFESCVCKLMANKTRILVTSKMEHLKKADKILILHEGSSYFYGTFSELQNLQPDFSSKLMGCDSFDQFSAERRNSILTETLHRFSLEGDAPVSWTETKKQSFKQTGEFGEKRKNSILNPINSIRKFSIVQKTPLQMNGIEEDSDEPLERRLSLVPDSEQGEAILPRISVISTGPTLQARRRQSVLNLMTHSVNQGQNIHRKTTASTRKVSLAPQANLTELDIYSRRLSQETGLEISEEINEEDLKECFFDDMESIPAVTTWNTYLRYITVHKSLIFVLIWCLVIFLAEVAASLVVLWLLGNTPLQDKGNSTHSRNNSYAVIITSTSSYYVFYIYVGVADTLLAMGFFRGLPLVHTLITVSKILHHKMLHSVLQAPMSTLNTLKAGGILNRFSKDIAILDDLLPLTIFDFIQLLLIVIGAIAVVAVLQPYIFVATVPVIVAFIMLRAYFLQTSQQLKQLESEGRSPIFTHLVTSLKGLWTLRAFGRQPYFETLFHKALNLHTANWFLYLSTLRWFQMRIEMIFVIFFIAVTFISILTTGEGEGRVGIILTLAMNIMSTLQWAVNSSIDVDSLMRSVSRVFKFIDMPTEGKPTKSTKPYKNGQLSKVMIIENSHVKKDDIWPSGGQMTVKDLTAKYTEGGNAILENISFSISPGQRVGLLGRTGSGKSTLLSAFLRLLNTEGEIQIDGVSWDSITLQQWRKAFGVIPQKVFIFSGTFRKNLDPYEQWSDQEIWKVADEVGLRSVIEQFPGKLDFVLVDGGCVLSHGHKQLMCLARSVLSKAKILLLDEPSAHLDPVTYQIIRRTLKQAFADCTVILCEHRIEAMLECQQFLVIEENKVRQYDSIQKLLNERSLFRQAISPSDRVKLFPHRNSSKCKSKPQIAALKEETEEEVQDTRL

| SMILES | % Activation | EC50 |
| --- | --- | --- |
| O=C(O)c1cc(N2CCS(=O)(=O)CC2)c2c(C3CCC3)nn(-c3ccccc3)c2n1 [compound 673, 3-cyclobutyl-4-(1,1-dioxo-1λ^6,4-thiazinan-4-yl)-1-phenyl-1H-pyrazolo[3,4-b]pyridine-6-carboxylic acid] | 163.25% | 3330 nM |
| CCN(C1CCN(c2cc(C(=O)O)nc3c2c(C(C)C)nn3-c2ccc(F)cc2)CC1)C1COC1 [compound 750, 4-{4-[ethyl(oxetan-3-yl)amino]piperidin-1-yl}-1-(4-fluorophenyl)-3-(propan-2-yl)-1H-pyrazolo[3,4-b]pyridine-6-carboxylic acid] | 394.1% | 503 nM |
| CCCCN1CCCN(c2cc(C(=O)O)nc3c2c(C2CCC2)nn3-c2ccccc2)CC1 [compound 710, 4-(4-butyl-1,4-diazepan-1-yl)-3-cyclobutyl-1-phenyl-1H-pyrazolo[3,4-b]pyridine-6-carboxylic acid] | 282.6% | 1350 nM |
| CCOCCN1CCC(N2CCN(c3cc(C(=O)O)nc4c3c(C3CCC3)nn4-c3ccccc3)CC2)CC1 [compound 726, 3-cyclobutyl-4-{4-[1-(2-ethoxyethyl)piperidin-4-yl]piperazin-1-yl}-1-phenyl-1H-pyrazolo[3,4-b]pyridine-6-carboxylic acid] | 409.6% | 311 nM |
| CN(C)C(=O)N1CCN(c2cc(C(=O)O)nc3c2c(C2CCC2)nn3-c2ccccc2)CC1 [compound 708, 3-cyclobutyl-4-[4-(dimethylcarbamoyl)piperazin-1-yl]-1-phenyl-1H-pyrazolo[3,4-b]pyridine-6-carboxylic acid] | 314.8% | 147 nM |
| CN(C)[C@H]1CCN(c2cc(C(=O)O)nc3c2c(C2CCC2)nn3-c2ccccc2)C1 [compound 568, 3-cyclobutyl-4-[(3S)-3-(dimethylamino)pyrrolidin-1-yl]-1-phenyl-1H-pyrazolo[3,4-b]pyridine-6-carboxylic acid] | 279.9% | 2480 nM |
| O=C(O)c1cc(N2CCC(CCCN3CCCCC3)CC2)c2c(C3CCC3)nn(-c3ccccc3)c2n1 [compound 732, 3-cyclobutyl-1-phenyl-4-{4-[3-(piperidin-1-yl)propyl]piperidin-1-yl}-1H-pyrazolo[3,4-b]pyridine-6-carboxylic acid] | 409.6% | 119 nM |
| CC(=O)N1CCC(COc2cc(C(=O)O)nc3c2c(C(C)C)nn3-c2ccc(F)cc2)CC1 [compound 662, 4-[(1-acetylpiperidin-4-yl)methoxy]-1-(4-fluorophenyl)-3-(propan-2-yl)-1H-pyrazolo[3,4-b]pyridine-6-carboxylic acid] | 310.6% | 2300 nM |
| O=C(O)c1cc(O[C@H]2C[C@@H](N3CCC3)C2)c2c(C3CCC3)nn(-c3ccccc3)c2n1 [compound 598, 4-{[cis-3-(azetidin-1-yl)cyclobutyl]oxy}-3-cyclobutyl-1-phenyl-1H-pyrazolo[3,4-b]pyridine-6-carboxylic acid] | 274.4% | 3330 nM |
| CC(C)c1nn(-c2ccc(F)cc2)c2nc(C(=O)O)cc(N3CC(N4CCC(N(C)C5COC5)CC4)C3)c12 [compound 758, 1-(4-fluorophenyl)-4-(3-{4-[methyl(oxetan-3-yl)amino]piperidin-1-yl}azetidin-1-yl)-3-(propan-2-yl)-1H-pyrazolo[3,4-b]pyridine-6-carboxylic acid] | 139.5% | 812 nM |
| N#CC1COC2(C1)CN(c1cc(C(=O)O)nc3c1c(C1CCC1)nn3-c1ccccc1)C2 (centres unmarked) [compound 716, 4-(7-cyano-5-oxa-2-azaspiro[3.4]octan-2-yl)-3-cyclobutyl-1-phenyl-1H-pyrazolo[3,4-b]pyridine-6-carboxylic acid] | 282.9% | 772 nM |
| CC1(N2CCCCC2)CCN(c2cc(C(=O)O)nc3c2c(C2CCC2)nn3-c2ccccc2)CC1 [compound 698, 3-cyclobutyl-4-(4′-methyl [1,4′-bipiperidin]-1′-yl)-1-phenyl-1H-pyrazolo[3,4-b]pyridine-6-carboxylic acid] | 242.7% | 745 nM |
| COCc1nn(-c2ccccc2)c2nc(C(=O)O)cc(-c3ccc(N4CCOCC4)cc3)c12 [compound 122, 3-(methoxymethyl)-4-[4-(morpholin-4-yl)phenyl]-1-phenyl-1H-pyrazolo[3,4-b]pyridine-6-carboxylic acid] | 311.75% | 1770 nM |
| CC(C)c1nn(-c2ccc(F)cc2)c2nc(C(=O)O)cc(N3CCC(N4CCN(C5COC5)CC4)CC3)c12 [compound 744, 1-(4-fluorophenyl)-4-{4-[4-(oxetan-3-yl)piperazin-1-yl]piperidin-1-yl}-3-(propan-2-yl)-1H-pyrazolo[3,4-b]pyridine-6-carboxylic acid] | 337.3% | 735 nM |
| O=C(O)c1cc(N2CCN3CCC[C@@H]3C2)c2c(C3CCC3)nn(-c3ccccc3)c2n1 [compound 721, 3-cyclobutyl-4-[(8aR)-hexahydropyrrolo[1,2-a]pyrazin-2(1H)-yl]-1-phenyl-1H-pyrazolo[3,4-b]pyridine-6-carboxylic acid] | 302.1% | 510 nM |
| CC(C)c1nn(-c2ccc(F)cc2)c2nc(C(=O)O)cc(N3CCC(N(C)C)CC3)c12 [compound 660, 4-[4-(dimethylamino)piperidin-1-yl]-1-(4-fluorophenyl)-3-(propan-2-yl)-1H-pyrazolo[3,4-b]pyridine-6-carboxylic acid] | 284.47% | 3330 nM |
| CN1CCCN(c2cc(C(=O)O)nc3c2c(C2CCC2)nn3-c2ccccc2)CC1 [compound 702, 3-cyclobutyl-4-(4-methyl-1,4-diazepan-1-yl)-1-phenyl-1H-pyrazolo[3,4-b]pyridine-6-carboxylic acid] | 214.1% | 1670 nM |
| O=C(O)c1cc(N2CCC(CCCN3CCCC3)CC2)c2c(C3CCC3)nn(-c3ccccc3)c2n1 [compound 733, 3-cyclobutyl-1-phenyl-4-{4-[3-(pyrrolidin-1-yl)propyl]piperidin-1-yl}-1H-pyrazolo[3,4-b]pyridine-6-carboxylic acid] | 396.9% | 85.1 nM |
| COCCCN1CCN(c2cc(C(=O)O)nc3c2c(C2CCC2)nn3-c2ccccc2)CC1 [compound 704, 3-cyclobutyl-4-[4-(3-methoxypropyl)piperazin-1-yl]-1-phenyl-1H-pyrazolo[3,4-b]pyridine-6-carboxylic acid] | 344.1% | 409 nM |
| CN1CCN(c2cc(C(=O)O)nc3c2c(C2CCC2)nn3-c2ccccc2)CC1 [compound 563, 3-cyclobutyl-4-(4-methylpiperazin-1-yl)-1-phenyl-1H-pyrazolo[3,4-b]pyridine-6-carboxylic acid] | 272.97% | 2230 nM |
| CC(C)c1nn(-c2ccc(F)cc2)c2nc(C(=O)O)cc(N3CCC(C4CCN(C5COC5)CC4)CC3)c12 [compound 752, 1-(4-fluorophenyl)-4-[1′-(oxetan-3-yl)[4,4′-bipiperidin]-1-yl]-3-(propan-2-yl)-1H-pyrazolo[3,4-b]pyridine-6-carboxylic acid] | 530.9% | 104 nM |
| CC(C)c1nn(-c2ccc(F)cc2)c2nc(C(=O)O)cc(N3CC[C@@H](O)[C@H](F)C3)c12 [compound 668, 4-[(3R,4R)-3-fluoro-4-hydroxypiperidin-1-yl]-1-(4-fluorophenyl)-3-(propan-2-yl)-1H-pyrazolo[3,4-b]pyridine-6-carboxylic acid] | 341.65% | 2360 nM |
| CC(C)c1nn(-c2ccc(F)cc2)c2nc(C(=O)O)cc(N3CCN(C4CCN(C5CC5)CC4)CC3)c12 [compound 743, 4-[4-(1-cyclopropylpiperidin-4-yl)piperazin-1-yl]-1-(4-fluorophenyl)-3-(propan-2-yl)-1H-pyrazolo[3,4-b]pyridine-6-carboxylic acid] | 330.5% | 1240 nM |
| C[C@H]1CN(c2cc(C(=O)O)nc3c2c(C2CCC2)nn3C2CCCCC2)CCN1Cc1ccccc1 [compound 881, 4-[(3S)-4-benzyl-3-methylpiperazin-1-yl]-3-cyclobutyl-1-cyclohexyl-1H-pyrazolo[3,4-b]pyridine-6-carboxylic acid] | 242.75% | 700 nM |
| CC(C)c1nn(-c2ccc(F)cc2)c2nc(C(=O)O)cc(OCCCN3CCCCC3)c12 [compound 653, 1-(4-fluorophenyl)-4-[3-(piperidin-1-yl)propoxy]-3-(propan-2-yl)-1H-pyrazolo[3,4-b]pyridine-6-carboxylic acid] | 260.3% | 3330 nM |
| O=C(O)c1cc(N2CC3(CCCOC3)C2)c2c(C3CCC3)nn(-c3ccccc3)c2n1 [compound 720, 3-cyclobutyl-4-(6-oxa-2-azaspiro[3.5]nonan-2-yl)-1-phenyl-1H-pyrazolo[3,4-b]pyridine-6-carboxylic acid] | 263.1% | 356 nM |
| CN1CCN(CCC2CCN(c3cc(C(=O)O)nc4c3c(C3CCC3)nn4-c3ccccc3)CC2)CC1 [compound 695, 3-cyclobutyl-4-{4-[2-(4-methylpiperazin-1-yl)ethyl]piperidin-1-yl}-1-phenyl-1H-pyrazolo[3,4-b]pyridine-6-carboxylic acid] | 385.5% | 119 nM |
| CN1CCN(C(=O)C2CCN(c3cc(C(=O)O)nc4c3c(C3CCC3)nn4-c3ccccc3)CC2)CC1 [compound 739, 3-cyclobutyl-4-[4-(4-methylpiperazine-1-carbonyl)piperidin-1-yl]-1-phenyl-1H-pyrazolo[3,4-b]pyridine-6-carboxylic acid] | 327.2% | 1670 nM |
